Test results from US20250161282A1, “PHARMACEUTICAL PYRIDYL COMPOSITIONS FOR TREATING AND PREVENTING DELAYED GRAFT FUNCTION” (Unicycive Therapeutics, Inc., priority 2023, published 2025).
Where a name gives a salt, the structure may show the parent alone. Read-outs that look alike come from different tables or passages of the source.

Key:
[1] = Phase I study Part 1, single ascending doses (SAD), oral fasted
Procedure: (§1) In this Phase I study, the safety and tolerability of single ascending doses (SAD) of Compound 8 was administered to male and female subjects. The study was a single centre, double-blinded, placebo-controlled, randomized single ascending doses (SAD) and multiple ascending doses (MAD) study in healthy male and female subjects of non-childbearing potential.
(§2) Part 1 was a double-blinded, randomized, placebo-controlled, SAD study, including approximately 32 subjects in 4 cohorts of 8 subjects each (randomized to a ratio of 6 active and 2 placebo per cohort). The subjects received the regimens presented in Table A. The route of administration was oral and fasted.
(§3) Subjects received a single dose of Compound 8 Capsule or placebo in the morning following an overnight fast. For Regimen E, Period 2, cohort SAD 3 were readmitted to the clinical unit. There was a minimum 7-day washout between dosing occasions for Regimen C and Regimen E. Blood samples were collected at regular intervals for safety and PK analysis from Day −1 to discharge from the clinical unit.
(§4) In Part 1 of the study, subjects received a single oral doses of Compound 8 Capsule or placebo on one occasion in the fasted state, except for subjects in Cohort SAD 3 who received two single doses on two separate occasions. Doses ranged from 10 mg to 160 mg. In Part 2 of the study, subjects received single doses of Compound 8 Capsule or placebo BID for 4 consecutive days and once on Day 5 in the fasted state. Doses ranged from 40 mg to 80 mg.

[2] = system: contrast induced nephropathy; details: 10 mg BID dosing; cited from earlier work
[3] = nicorandil 10 mg; cited from earlier work
[4] = system: unilateral IR model of AKI in rats; test: unilateral IR model of AKI in rats (kidney functional markers, tubular injury); assay type: in vivo, male SD (Sprague Dawley) rats; details: for BUN vs IR vehicle: p<0.0001 (FIG. 4); for serum creatinine: p<0.0001 (FIG. 9A)
Procedure: A total of […] male SD (Sprague Dawley) rats were divided into 10 groups each with 10 rats/group as detailed in the Table 3. The ischemia was induced in the left kidney using a small clamp (Sugita standard aneurysm clip holding force 145 g) that was placed on the renal vascular pedicle for 30 min for all groups except SHAM group.
All rats were housed in metabolic cages for the collection of 24-hour urine samples for ACR, NGAL and β2-MG levels. After 24 hours, rats were anaesthetized, and blood samples were collected for sCre, and BUN levels. The left kidney was collected and processed for histology for tubular injury scores.
A total of additional 10 male SD (Sprague Dawley) rats were used along with the Group 1 (No IR) and Group 2 (IR); and other Groups listed in the Tabel 3; and conducted the study. The ischemia was induced in the left kidney of those additional 10 rats using a small clamp (Sugita standard aneurysm clip holding force 145 g) that was placed on the renal vascular pedicle for 30 min.
Nicorandil at 10 mg/kg, was administered 30 minutes prior to the induction of ischemia via intraperitoneal (ip) administration to the additional 10 rats along with the groups listed in Table 3. All additional 10 rats were housed in metabolic cages for the collection of 24-hour urine samples for ACR. After 24 hours, rats were anaesthetized, and blood samples were collected for sCre. The left kidney was collected and processed for histology for tubular injury scores along with the other groups as detailed in Table 3.

[5] = Phase I study Part 2, multiple ascending doses (MAD), BID oral fasted; assay type: in vivo, human; details: for dose-proportionality of exposure from 40 mg to 80 mg (Cmax and AUC(0-tau)): Day 1, analyte = labelled substance; for Tmax at 5 days: read-out: median Tmax
Description: Part 2 of the study was a double-blind, randomized, placebo-controlled, MAD study.

clinical = details: both, human, plasma, oral
Procedure: as §1, §2, §3, §4

[6] = system: rat bilateral ischemia/reperfusion (IR) model; test: rat bilateral ischemia/reperfusion (IR) model, oral Compound 8 (iodide salt); assay type: in vivo, male Sprague Dawley rats; details: for urine β2-MG levels and content compared with Group 2 (IR): iodide salt
Description: Animal models of IRI (ischemia reperfusion injury), DGF (delayed graft function), and AKI (acute kidney injury) mimic many features seen in human kidney allografts. […] In 2011, the FDA held a workshop to review the current state of knowledge related to the effects of IRI on outcomes in kidney transplantation in animal models. The FDA stated animal models have implicated maladaptive host responses to […]. The maladaptive responses are changes in hemodynamics, decrease in oxygen tension, mitochondrial dysfunction, tubular injury, inflammation, etc.
In the rat bilateral IR model, the bilateral renal pedicle was clamped for 45 min for ischemia and then the clamp is removed to allow reperfusion. […] Urine β2-MG levels and content of Group 2 were higher than those in Group 1. Compared with Group 2, Groups 3 and 4 had lower urine β2-MG levels and content (n=10/group) (FIG. 1; […] at 10 mg/kg dose and p<0.01 at 20 mg/kg dose—as per one-way ANOVA multiple comparison test).

With `O=C(NCCO[N+](=O)[O-])c1cccnc1` [Nicorandil, reference compound] as the molecule, how does the “dose proportionality of peak (20-160 mg) and total (40-160 mg) exposure” value ([1]; nicorandil after Compound 8, Cmax and AUC(0-last)) read?
Its value is “slightly greater than proportional”.

And the “activity in contrast induced nephropathy” value [2]?
The value was “show activity”.

What about the AUC [3] of the same molecule?
The AUC was 101 (range of 122-323) hour·ng/m.

What about the Cmax [3] of the same molecule?
Its Cmax is 107 (range of 44-148) ng/mL.

And the Tmax [3]?
The Tmax was 0.43 (range 0.25-0.75) hours.

What about the “proximal tubules, histological images” value ([4]; 10 mg/kg ip (FIG. 10D)) of the same molecule?
The value was “most all proximal tubules are healthy”.

What about the “serum creatinine compared to Group 2” value ([4]; 10 mg/kg ip single dose 30 min prior to ischemia, p<0.0001 (FIG. 10A)) of the same molecule?
The value was “significantly reduced”.

And the “ACR compared to Group 2” value ([4]; 10 mg/kg ip single dose 30 min prior to ischemia, p<0.0001 (FIG. 10B))?
Its value is “significantly reduced”.

What about the “tubular injury/damage compared to Group 2” value ([4]; 10 mg/kg ip single dose 30 min prior to ischemia, p<0.0001 (FIG. 10C)) of the same molecule?
Its value is “significantly reduced”.

What about the “dose-proportionality of exposure from 40 mg to 80 mg (Cmax and AUC(0-tau))” value [5] of the same molecule?
The value was “proportional increase”.

With `C[C@@H](NC(=O)OC[n+]1cccc(C(=O)NCCO[N+](=O)[O-])c1)C1CCCCC1` [Compound 8, nitrate salt] as the molecule, how does the “serum creatinine vs IR vehicle” value ([4]; 5 mg/kg/iv single dose 30 min prior to ischemia, p<0.0001 (FIG. 2C)) read?
The value was “phenomenally reduced”.

What about the “BUN vs IR vehicle” value ([4]; 5 mg/kg/iv single dose 30 min prior to ischemia) of the same molecule?
Its value is “phenomenally reduced”.

And the “urinary ACR vs IR vehicle” value ([4]; 5 mg/kg/iv single dose 30 min prior to ischemia, p<0.001 (FIG. 3C))?
Its value is “phenomenally reduced”.

What about the “serum creatinine vs IR vehicle” value ([4]; 10 mg/kg/iv single dose 30 min prior to ischemia, p<0.0001 (FIG. 2C)) of the same molecule?
Its value is “phenomenally reduced”.

And the “BUN vs IR vehicle” value ([4]; 10 mg/kg/iv single dose 30 min prior to ischemia)?
The value was “phenomenally reduced”.

What about the “urinary ACR vs IR vehicle” value ([4]; 10 mg/kg/iv single dose 30 min prior to ischemia, p<0.001 (FIG. 3C)) of the same molecule?
The value was “phenomenally reduced”.

What about the “urinary ACR vs IR vehicle” value ([4]; 25 mg/kg/ip single dose 30 min prior to ischemia, p<0.01 (FIG. 3B)) of the same molecule?
The value was “significantly reduced”.

And the “urinary ACR vs IR vehicle” value ([4]; 50 mg/kg/ip single dose 30 min prior to ischemia, p<0.001 (FIG. 3B))?
Its value is “significantly reduced”.

What about the “serum creatinine vs IR vehicle” value ([4]; 50 mg/kg/ip single dose 30 min prior to ischemia, p<0.05 (FIG. 2B)) of the same molecule?
The value was “significantly reduced”.

What about the “urinary ACR vs IR vehicle” value ([4]; 50 mg/kg/po single dose 30 min prior to ischemia, p<0.01 (FIG. 3A)) of the same molecule?
The value was “significantly reduced”.

And the “urinary ACR vs IR vehicle” value ([4]; 100 mg/kg/po single dose 30 min prior to ischemia, p<0.001 (FIG. 3A))?
The value was “significantly reduced”.

What about the “serum creatinine vs IR vehicle” value ([4]; 100 mg/kg/po single dose 30 min prior to ischemia, p<0.05 (FIG. 2A)) of the same molecule?
The value was “significantly reduced”.

What about the “proximal convoluted tubular injury scores” value ([4]; intraperitoneal high dose 50 mg/kg, preventive, p<0.0001 (FIG. 6B)) of the same molecule?
The value was “effective in lowering”.

What about the “tubular injury marker β2-MG (urinary)” value ([4]; intraperitoneal low dose 25 mg/kg, preventive, p<0.01 (FIG. 8)) of the same molecule?
The value was “effective in lowering”.

What about the “tubular injury/damage, histological images” value ([4]; intraperitoneal route (FIG. 7D)) of the same molecule?
Its value is “moderately ameliorated”.

And the “tubular injury marker NGAL (urinary)” value ([4]; intravenous high dose 10 mg/kg, preventive, p<0.0001 (FIG. 5B))?
The value was “robustly effective in lowering”.

And the “proximal convoluted tubular injury scores” value ([4]; intravenous high dose 10 mg/kg, preventive, p<0.0001 (FIG. 6C))?
The value was “robustly effective in lowering”.

And the “tubular injury marker NGAL (urinary)” value ([4]; intravenous low dose 5 mg/kg, preventive, p<0.0001 (FIG. 5B))?
The value was “robustly effective in lowering”.

What about the “proximal convoluted tubular injury scores” value ([4]; intravenous low dose 5 mg/kg, preventive, p<0.0001 (FIG. 6C)) of the same molecule?
Its value is “robustly effective in lowering”.

And the “tubular injury/damage, histology” value ([4]; intravenous route, low and high doses (FIG. 6C, 7E))?
Its value is “markedly ameliorated”.

And the “tubular injury marker NGAL (urinary)” value ([4]; oral high dose 100 mg/kg, preventive, p<0.0001 (FIG. 5A))?
Its value is “effective in lowering”.

What about the “proximal convoluted tubular injury scores/damage” value ([4]; oral high dose 100 mg/kg, preventive, p<0.0001 (FIG. 6A)) of the same molecule?
Its value is “effective in lowering”.

What about the “tubular injury marker NGAL (urinary)” value ([4]; oral low dose 50 mg/kg, preventive, p<0.0001 (FIG. 5A)) of the same molecule?
The value was “effective in lowering”.

And the “tubular injury/damage, histological images” value ([4]; oral route (FIG. 7C))?
Its value is “moderately ameliorated”.

And the BUN ([4]; therapeutic regimen, 10 mg/kg/iv at 1 hour, p<0.001 (FIG. 9B))?
The BUN was “phenomenally reduced”.

And the BUN ([4]; therapeutic regimen, 10 mg/kg/iv at 4 hours, p<0.0001 (FIG. 9B))?
Its BUN is “phenomenally reduced”.

And the “urinary NGAL” value ([4]; therapeutic regimen, 10 mg/kg/iv at 4 hours, p<0.01 (FIG. 9C))?
The value was “phenomenally reduced”.

And the serum creatinine ([4]; therapeutic regimen, 10 mg/kg/iv single dose at 1 hour after ischemia)?
Its serum creatinine is “phenomenally reduced”.

And the serum creatinine ([4]; therapeutic regimen, 10 mg/kg/iv single dose at 4 hours after ischemia)?
The serum creatinine was “phenomenally reduced”.

Which PK profiles ([1]; after Compound 8 10 mg, 20 mg and 40 mg dose levels) does the source give for `CC(N)C1CCCCC1` (stereo not shown) [1-cyclohexylethylamine] here?
The PK profiles was “entirely BLQ”.

What about the “subjects with quantifiable concentrations” value (from here on “subjects”) ([1]; after Compound 8 160 mg) of the same molecule?
The value was “all subjects”.

And the “subjects” value ([5]; multiple oral dosing 40 mg or 80 mg Compound 8 for 5 days)?
Its value is “all subjects”.

And the “subjects” value ([5]; single dosing of Compound 8 Capsule 80 mg)?
The value was “all subjects”.

With `CC(NC(=O)OC[n+]1cccc(C(=O)NCCO[N+](=O)[O-])c1)C1CCCCC1` (stereo in doubt) [Compound 8, (S)-1-(((1-cyclohexylethylcarbamoyl)oxy)methyl)-3-((2-(nitroxy)ethyl)carbamoyl)pyridine-1-ium iodide] as the molecule, how does the “dose proportionality of peak and overall exposure (Cmax, AUC(0-last))” value ([1]; 10 mg to 160 mg dose range) read?
Its value is “sub-proportional increase”.

What about the Tmax (clinical) of the same molecule?
The Tmax was 0.5 to 1.5 h.

What about the half-life (clinical) of the same molecule?
The half-life was 0.74 to 2.58 h.

And the AUC(0-t) (clinical; 10 mg)?
Its AUC(0-t) is over 0.127 ng·h/mL.

What about the Cmax (clinical; 10 mg) of the same molecule?
Its Cmax is over 1.01 ng/mL.

What about the “physical or behavioral abnormalities vs vehicle” value ([6]; 10 and 20 mg/kg oral) of the same molecule?
Its value is “no physical or behavioral abnormalities”.

What about the “significant changes in body weight vs vehicle” value ([6]; 10 and 20 mg/kg oral) of the same molecule?
The value was “no”.

What about the uACR vs vehicle ([6]; 10 and 20 mg/kg oral) of the same molecule?
The uACR vs vehicle was “no significant difference”.

And the “urine albumin concentration or total amount vs vehicle” value ([6]; 10 and 20 mg/kg oral)?
Its value is “no significant difference”.

And the “urine creatinine concentration or total amount vs vehicle” value ([6]; 10 and 20 mg/kg oral)?
The value was “no significant difference”.

What about the “creatinine marker of kidney function” value ([6]; doses up to 20 mg/kg oral) of the same molecule?
The value was “did not appear to have a significant impact”.

What about the “histological markers of kidney function (histological scores for tubular injury)” value ([6]; doses up to 20 mg/kg oral) of the same molecule?
Its value is “did not appear to have a significant impact”.

What about the “urine β2-MG levels and content compared with Group 2 (IR)” value ([6]; 10 mg/kg oral 1 hour prior to ischemia, p<0.5 (FIG. 1)) of the same molecule?
The value was “lower”.

And the “urine β2-MG levels and content compared with Group 2 (IR)” value ([6]; 20 mg/kg oral 1 hour prior to ischemia, p<0.01 (FIG. 1))?
The value was “lower”.

What about the “dose-proportionality of exposure from 40 mg to 80 mg (Cmax and AUC(0-tau))” value [5] of the same molecule?
The value was “approximate proportional increase”.

What about the half-life at 5 day ([5]; both sexes, human, plasma, oral, Day 5, both doses, reliable in 3 out of the 10 profiles, read-out: individual plasma half-life) of the same molecule?
Its half-life at 5 day is 1.11 to 1.42 h.

And the Tmax at 5 days ([5]; both sexes, human, plasma, multiple oral doses 40 mg for 5 days)?
Its Tmax at 5 days is 1.5 h.

And the Tmax at 5 days ([5]; both sexes, human, plasma, multiple oral doses 80 mg for 5 days)?
The Tmax at 5 days was 1 h.
